The values below come from patent US6448392B1, “Lipid derivatives of antiviral nucleosides: liposomal incorporation and method of use” (Chimerix, Inc., priority 1985, dated 2002).

Where “and” joins values, the source holds several entries; their conditions need not be identical. Equal entries are not always repeated. Structures can show the parent of a compound that is named as a salt. Where two headings read alike, the source gives them in different places.

The test system of one assay is HSV-1. The assay is described as follows: Herpes simplex virus plaque reduction assay, HSV-1 in Wi-38 cells. In kind it is cell-based, Herpes simplex virus type 1. The conditions noted are these: for IC50: HSV-1 infected Wi-38 cells, plaque reduction, read-out: concentration which produces 50% inhibition. On the procedure: Wi-38 cells were obtained from American Type Culture Collection (Rockville, Md. 20852) and grown in Dulbecco's minimum essential medium (DMEM) with 10% fetal calf serum (FCS). The cells were grown in 250 cm square bottles until reaching confluence.
Herpes simplex virus (HSV) type 1 (HSV-1) and type 2 (HSV-2) were obtained from the American Type Culture Collection. Both virus stocks were prepared in Wi-38 cells; extensive cytopathic effects (CPD) were observed when the stock virus was harvested by a single freezing and thawing and the cell debris was clarified by low speed centrifugation (2000 rpm). Supernatant fluids containing the virus were aliquoted into small vials and stored at −80° C. Both HSV-1 and HSV-2 stocks were titered in Wi-38 cells before use in the experiments.
The plaque reduction assay was used to measure the antiviral effect of phosphatidylacyclovir or free ACV. Wi-38 cells were trypsinized with 0.25% trypsin for 5 min. The cells were harvested and centrifuged to remove residual trypsin and the cell pellet was resuspended in DMEM with 10% FCS. The Wi-38 cells were plated in a 96 well plate ([…] cells/well) for one hour. The infected cells were then treated with phosphatidylacyclovir or ACV. The antiviral agents were prepared in stock solutions which were then diluted two-fold with 2% FBS in DMEM containing 0.5% methylcellulose. 100 μl of each diluted antiviral agent was added into each well of HSV infected cells.
The control and drug-treated cell cultures were incubated in a 37° C. incubator with 5% carbon dioxide for 24 hours. […] The dye was rinsed off with tap water and the plate was dried and plaques were counted. The antiviral effect of ACV or phosphatidylacyclovir was determined by measurement of plaque reduction as shown in the example below.
For orientation: Plaques are areas of infected cells; plaque reduction assays count them against a control.

Another assay has as its system HIV (LAV-1 strain). In kind it is cell-based. The following applies: for inhibition of HIV p24 production: Experiment H747-1b, CEM cells; for EC50: CEM wild type. Here is the method:
6.42 micromoles of dioleoylphosphatidylcholine, 3.85 micromoles of cholesterol, 1.28 micromoles of dioleoylphosphatidylglycerol and 1.28 micromoles of dimyristoylphosphatidyl-azidothymidine were mixed in a sterile 2.0 ml glass vial and the solvent was removed in vacuo in a rotary evaporator. In some experiments, dimyristoylphosphatidylazidothymidine was replaced with either dimyristoylphosphatidyldideoxythymidine, dimyristoylphosphatidyldideoxycytidine or azidothymidine diphosphate dimyristoylglycerol; control liposomes were prepared by omitting the antiviral liponucleotide. The dried film was placed under high vacuum overnight at room temperature to remove traces of solvent. The lipid film was hydrated at 30° C. with 0.3 ml of sterile 10 mM sodium acetate buffer (pH 5.0) containing isotonic dextrose and the ampule was sealed. The mixture was vortexed intermittently for 10 minutes followed by sonication using a Heat Systems Ultrasonics sonicator with a cup horn generator (431B) at output control setting #9 for 90 to 120 minutes at which time the sample is clarified. This sonicated preparation was diluted with sterile RPMI buffer and added to the tissue culture wells at the concentration indicated.
(§1) The human T lymphoblastoid cell line, CCRG-CEM (hereafter referred to as CEM), was grown in RPMI 1640 medium containing 100 U/ml penicillin G, 100 ug/ml streptomycin, 2 mM glutamine and 10% fetal bovine serum (Hyclone Laboratories, Logan, Utah). Cells were infected with the LAV-1 strain (L. Montagnier, Paris, France) at a multiplicity of infection of one tissue culture 50% infectious dose (TCID50)/cell for 60 minutes at 37° C. in medium containing […]. CEM cells were infected in suspension at 6×10^4 cells/ml, washed three times by centrifugation and resuspension and then distributed in 96-well plates at 6×10^4 cells/well before addition of medium containing the liposomal antiretroviral liponucleotide drugs.
(§2) Antiviral activity was assayed after 3 days by the inhibition of the production of HIV p24 (gag) antigen in the cell free culture medium of the infected cells exposed to different concentrations of drug; p24 antigen was measured by ELISA (Abbott Laboratories, Chicago, Ill.) according to the manufacturer's instructions. The data are the average of two determinations and are expressed as percentage of a control incubated in the absence of drugs.

Another assay has as its system HIV in CEM tk- cells. The assay is described as follows: Inhibition of HIV p24 production in thymidine kinase deficient CEM tk- cells. The format is cell-based. The following applies: Experiment H637-1b, AZT 0.2 to 100 uM. Here is the method: as §1, §2
In this experiment, CEM cells were replaced with mutant cells (provided by Dr. Dennis Carson, Scripps Clinic, San Diego, Calif.) which lack the thymidine kinase enzyme (CEM tk−).

The test system of another assay is HIV (LAV-1). Briefly: HIV plaque formation in HT4-6C cells (CD4+ HeLa cells) infected with LAV-1. The format is cell-based. Here is the method: In this experiment the compound of Example 7 (1-O- stearoylglycero-rac-3-phospho-5′-(3′-deoxy, 3′-azido)thymidine) was incorporated into liposomes containing 10 mole percent of the liponucleotide as indicated in Example 8. This material was diluted with RPMI medium to the desired concentration and added to HT4-6C cells (CD4+ HeLa cells) obtained from Dr. Bruce Chesbro of the Rocky Mountain National Laboratories (Hamilton, Mont.) which had been infected with LAV-1 as noted earlier in this example. After a 3 day incubation at 37° C., the cells were washed with PBS, fixed and stained with crystal violet and the plaques were counted.
PalmitoylAZT was incorporated into liposomes as noted in Example 8 and incubated with LAV-1 infected HT4-6C cells as noted in Examples 10 and 11. 0.8 uM palmitoylAZT inhibited plaque formation by 25% (134 plaques versus 176 in the untreated control).

The mark [1] stands for this setting: Experiment H533-1, liposomes containing 10 mole percent liponucleotide, p24 after 3 days, read-out: amount of drug required to reduce virus production by 50% (E.D. 50).
[2] abbreviates: Experiment H805-1, liposomes, p24, read-out: ED50 (the source's name).
[3] abbreviates: 10 uM liponucleotide in liposomes, 3 day incubation.

Take `Nc1nc2c(ncn2COCCO)c(=O)[nH]1` [Acyclovir, Acycloguanosine, reference compound]: the “% no Drug” value with HSV-1 (Acyclovir 0.155 uM) turned out to be 73%; in the assay on HSV-1 (Acyclovir 0.31 uM) it was 65%; with HSV-1 (Acyclovir 0.625 uM) it was 26%; in the assay on HSV-1 (Acyclovir 1.25 uM), 13%; with HSV-1 (Acyclovir 2.5 uM) it was 0%; in the assay on HSV-1 (Acyclovir 5 uM), 0%. Further, the “% no Drug” value with HSV-1 (Acyclovir 10 uM) was 0%. Besides, the “plaques (determinations 1 and 2)” value was 18 and 22 in the assay with HSV-1 (Acyclovir 0.155 uM); 17 and 19 in the assay on HSV-1 (Acyclovir 0.31 uM); 8 and 6 in the assay on HSV-1 (Acyclovir 0.625 uM); 4 and 3 in the assay on HSV-1 (Acyclovir 1.25 uM); 0 in the assay on HSV-1 (Acyclovir 2.5 uM); 0 with HSV-1 (Acyclovir 5 uM). For the same molecule, in the assay with HSV-1 (Acyclovir 10 uM), the “plaques (determinations 1 and 2)” value was 0. For the same molecule, the “plaques, mean” value with HSV-1 (Acyclovir 0.155 uM) came out at 20; in the assay on HSV-1 (Acyclovir 0.31 uM), 20; with HSV-1 (Acyclovir 0.625 uM), 7; with HSV-1 (Acyclovir 1.25 uM), 3.5; in the assay with HSV-1 (Acyclovir 2.5 uM) it was 0; with HSV-1 (Acyclovir 5 uM), 0. The “plaques, mean” value in the assay with HSV-1 (Acyclovir 10 uM) is given as 0. Also, the IC50 in the assay with HSV-1 (Human alphaherpesvirus 1) is 0.4 µM.

`Cc1cn([C@H]2CC[C@@H](CO)O2)c(=O)[nH]c1=O` [Example N2, 2′,3′-dideoxythymidine, reference compound]: the “inhibition of HIV p24 production” value in the assay with HIV (LAV-1 strain) was “weak inhibitor of HIV p24 production”.

Regarding `CCCCCCCCCCCCCC(=O)OC[C@@H](COP(=O)(O)OC[C@@H]1CC[C@H](n2cc(C)c(=O)[nH]c2=O)O1)OC(=O)CCCCCCCCCCCCC` [LN2, 1,2-Dimyristoylglycerophospho-5′-(3′-deoxy)thymidine, Monosodium Salt], the EC50 in the assay on HIV (LAV-1 strain) (setting [1]) was 30 µM; with HIV (LAV-1 strain) (setting [2]) it was 20 µM. Also, the “inhibition of HIV p24 production” value with HIV (LAV-1 strain) is listed as “somewhat more effective than the free nucleoside”. In the assay with HIV in CEM tk- cells, the “effect on p24 production” value was “capable of reducing p24 production”.

Take `CCCCCCCCCCCCCCCC(=O)OC[C@H]1O[C@@H](n2cc(C)c(=O)[nH]c2=O)C[C@@H]1N=[N+]=[N-]` [PalmitoylAZT, 5′-palmitoyl(3′-deoxy-3′-azido)thymidine]: in the assay with HIV (LAV-1) (0.8 uM in liposomes, 176 in the untreated control), the plaques is on record as 134. The “inhibition of plaque formation” value in the assay on HIV (LAV-1) (0.8 uM in liposomes, LAV-1 infected HT4-6C cells) is listed as 25%.

In the case of `CCCCCCCCCCCCCC(=O)OCC(COP(=O)(O)OCCOCn1cnc2c(=O)[nH]c(N)nc21)OC(=O)CCCCCCCCCCCCC` (stereo in doubt) [PhosphatidylACV, dimyristoylphosphatidylacycloguanosine], the IC50 in the assay on HSV-1 amounted to 2 µM. The “% no Drug” value with HSV-1 (PhosphatidylACV 0.84 uM) turned out to be 91%; in the assay on HSV-1 (PhosphatidylACV 1.67 uM), 67%; with HSV-1 (PhosphatidylACV 3.3 uM), 40%; in the assay with HSV-1 (PhosphatidylACV 6.7 uM), 27%; with HSV-1 (PhosphatidylACV 13.4 uM) it was 18%; with HSV-1 (PhosphatidylACV 27 uM), 9%. Moreover, the “% no Drug” value in the assay with HSV-1 (PhosphatidylACV 54 uM) and with HSV-1 (PhosphatidylACV 107 uM) was 0% each time. The “plaques (determinations 1 and 2)” value was 24 and 26 with HSV-1 (PhosphatidylACV 0.84 uM); 17 and 20 in the assay on HSV-1 (PhosphatidylACV 1.67 uM); 10 and 12 in the assay on HSV-1 (PhosphatidylACV 3.3 uM); 6 and 9 with HSV-1 (PhosphatidylACV 6.7 uM); 4 and 6 in the assay on HSV-1 (PhosphatidylACV 13.4 uM); 2 and 3 with HSV-1 (PhosphatidylACV 27 uM). In addition, the “plaques (determinations 1 and 2)” value in the assay with HSV-1 (PhosphatidylACV 54 uM) and with HSV-1 (PhosphatidylACV 107 uM) was 0 throughout. Moreover, the “plaques, mean” value with HSV-1 (PhosphatidylACV 0.84 uM) was found to be 25; with HSV-1 (PhosphatidylACV 1.67 uM), 18.5; in the assay with HSV-1 (PhosphatidylACV 3.3 uM) it was 11; with HSV-1 (PhosphatidylACV 6.7 uM), 7.5; with HSV-1 (PhosphatidylACV 13.4 uM) it was 5; in the assay on HSV-1 (PhosphatidylACV 27 uM) it was 2.5. Also, the “plaques, mean” value in the assay with HSV-1 (PhosphatidylACV 54 uM) and with HSV-1 (PhosphatidylACV 107 uM) was 0 in each case.

Turning to `CCCCCCCCCCCCCC(=O)OCC(COP(=O)(O)OP(=O)(O)OCC1OC(n2cc(C)c(=O)[nH]c2=O)CC1N=[N+]=[N-])OC(=O)CCCCCCCCCCCCC` (stereo not drawn) [LN4, azidothymidine diphosphate dimylristoylglycerol], the EC50 with HIV (LAV-1 strain) (setting [1]) stood at 8 µM.

Turning to `CCCCCCCCCCCCCC(=O)OCC(COP(=O)(O)OCC1CCC(n2ccc(N)nc2=O)O1)OC(=O)CCCCCCCCCCCCC` (stereo not drawn) [LN3, 1,2-dimyristoylglycerophospho-5′-(3′-dideoxy)cytidine], in the assay with HIV (LAV-1 strain) (setting [2]), the EC50 turned out to be 1.1 µM.

On to `CCCCCCCCCCCCCCCCCC(=O)OCC(O)COP(=O)(O)OC[C@H]1O[C@@H](n2cc(C)c(=O)[nH]c2=O)C[C@@H]1N=[N+]=[N-]` (mixture of isomers) [Example 7, 1-O-stearoylglycero-rac-3-phospho-5′-(3′-azido-3′-deoxy)thymidine], for which the “% of Untreated Control” value in the assay on HIV (LAV-1) (0.0316 uM) was determined as 78%; in the assay with HIV (LAV-1) (0.100 uM) it was 71%; in the assay with HIV (LAV-1) (0.316 uM), 58%; in the assay on HIV (LAV-1) (1.0 uM), 29%; with HIV (LAV-1) (3.16 uM) it was 13%; in the assay on HIV (LAV-1) (setting [3]), 2%. In addition, the “Plaques, Average” value in the assay with HIV (LAV-1) (0.0316 uM) is recorded as 43; in the assay on HIV (LAV-1) (0.100 uM), 39; in the assay with HIV (LAV-1) (0.316 uM), 32; in the assay with HIV (LAV-1) (1.0 uM) it was 16; with HIV (LAV-1) (3.16 uM), 7; with HIV (LAV-1) (setting [3]), 1. Besides, the IC50 in the assay on HIV (LAV-1) (HT4-6C cells infected with LAV-1, liposomes, read-out: concentration required to produce 50% inhibition of HIV plaque formation) is around 0.35 µM.
